Measured values as given in ChEMBL document CHEMBL1697731, “Cheminformatics analysis of assertions mined from literature that describe drug-induced liver injury in different species” (Chem Res Toxicol, 2010).

Tests used:
[1] = test system: Hepatotoxicity; assay: Literature-mined compound from Fourches et al multi-species drug-induced liver injury (DILI) dataset, effect in non-rodents
[2] = test system: Hepatotoxicity; assay: Literature-mined compound from Fourches et al multi-species drug-induced liver injury (DILI) dataset, effect in humans; settings: human
[3] = test system: Hepatotoxicity; assay: Literature-mined compound from Fourches et al multi-species drug-induced liver injury (DILI) dataset, effect in rodents; settings: rodentia

Compound | Hepatotoxicity [1] | Hepatotoxicity [2] | Hepatotoxicity [3] | Hepatotoxicity ([1]; Liver) | Hepatotoxicity ([2]; Liver) | Hepatotoxicity ([3]; Liver)
Nc1ncnc2c1ncn2[C@@H]1O[C@H](COP(=O)(O)OP(=O)(O)OP(=O)(O)O)[C@@H](O)[C@H]1O [ADENOSINE TRIPHOSPHATE] | no drug-induced liver injury reported | no drug-induced liver injury reported | drug-induced liver injury reported | – | – | –
COC1=C2C[C@@H](C)C[C@H](OC)[C@H](O)[C@@H](C)/C=C(\C)[C@H](OC(N)=O)[C@@H](OC)/C=C\C=C(/C)C(=O)NC(=CC1=O)C2=O [GELDANAMYCIN] | no drug-induced liver injury reported | drug-induced liver injury reported | no drug-induced liver injury reported | – | – | –
CC1CS(=O)(=O)CCN1/N=C/c1ccc([N+](=O)[O-])o1 (stereo not drawn) [NIFURTIMOX] | – | – | – | no drug-induced liver injury reported | no drug-induced liver injury reported | drug-induced liver injury reported
NNCCc1ccccc1 [PHENELZINE] | – | – | – | no drug-induced liver injury reported | drug-induced liver injury reported | drug-induced liver injury reported
CC(=O)O[C@]1(C(C)=O)CC[C@H]2[C@@H]3C=C(C)C4=CC(=O)CC[C@]4(C)[C@H]3CC[C@@]21C [MEGESTROL ACETATE] | no drug-induced liver injury reported | drug-induced liver injury reported | drug-induced liver injury reported | – | – | –
COc1ccc2c(c1)c(CC(=O)O)c(C)n2C(=O)c1ccc(Cl)cc1 [INDOMETHACIN] | drug-induced liver injury reported | drug-induced liver injury reported | drug-induced liver injury reported | – | – | –
Cc1ncc(COP(=O)(O)O)c(C=O)c1O [PYRIDOXAL PHOSPHATE ANHYDROUS] | no drug-induced liver injury reported | no drug-induced liver injury reported | drug-induced liver injury reported | – | – | –
CC(C)OC(=O)C(C(=O)OC(C)C)=C1SC=CS1 [MALOTILATE] | no drug-induced liver injury reported | drug-induced liver injury reported | drug-induced liver injury reported | – | – | –
CC(=O)Nc1nnc(S(N)(=O)=O)s1 [ACETAZOLAMIDE] | drug-induced liver injury reported | drug-induced liver injury reported | drug-induced liver injury reported | – | – | –
NC(N)=Nc1nc(CSCCC(N)=NS(N)(=O)=O)cs1 [FAMOTIDINE] | – | – | – | no drug-induced liver injury reported | drug-induced liver injury reported | drug-induced liver injury reported
CC(=O)O[C@H]1C[C@@]2(C)[C@@H](C[C@@H](O)[C@H]3[C@@]4(C)CC[C@@H](O)[C@@H](C)[C@@H]4CC[C@@]32C)/C1=C(\CCC=C(C)C)C(=O)O [FUSIDIC ACID] | no drug-induced liver injury reported | drug-induced liver injury reported | no drug-induced liver injury reported | – | – | –
CC(C)Nc1ncccn1.O=P(O)(O)O [ISAXONINE PHOSPHATE] | no drug-induced liver injury reported | drug-induced liver injury reported | no drug-induced liver injury reported | – | – | –
CC(=O)Oc1cc(C(C)C)c(OCCN(C)C)cc1C [MOXISYLYTE] | no drug-induced liver injury reported | drug-induced liver injury reported | no drug-induced liver injury reported | – | – | –
O=c1[nH]c(=O)c2c[nH]nc2[nH]1 [OXYPURINOL] | no drug-induced liver injury reported | no drug-induced liver injury reported | drug-induced liver injury reported | – | – | –
CCN(CC)C(=O)/C(C#N)=C/c1cc(O)c(O)c([N+](=O)[O-])c1 [ENTACAPONE] | no drug-induced liver injury reported | drug-induced liver injury reported | drug-induced liver injury reported | – | – | –
O=C(OOC(=O)c1ccccc1)c1ccccc1 [BENZOYL PEROXIDE] | no drug-induced liver injury reported | no drug-induced liver injury reported | drug-induced liver injury reported | – | – | –
C[C@@H](O)[C@H](NC(=O)N(C)c1ncnc2c1ncn2[C@@H]1O[C@H](COP(=O)(O)O)[C@@H](O)[C@H]1O)C(=O)O | no drug-induced liver injury reported | no drug-induced liver injury reported | drug-induced liver injury reported | – | – | –
CC1(C)O[C@@H]2[C@@H](CO[C@@]3(COS(N)(=O)=O)OC(C)(C)O[C@@H]23)O1 [TOPIRAMATE] | no drug-induced liver injury reported | drug-induced liver injury reported | no drug-induced liver injury reported | – | – | –

Compound | Hepatotoxicity [1] | Hepatotoxicity [2] | Hepatotoxicity [3] | Hepatotoxicity ([1]; Liver) | Hepatotoxicity ([2]; Liver) | Hepatotoxicity ([3]; Liver)
C#C[C@]1(O)CC[C@H]2[C@@H]3CCc4cc(OC5CCCC5)ccc4[C@H]3CC[C@@]21C [QUINESTROL] | no drug-induced liver injury reported | no drug-induced liver injury reported | drug-induced liver injury reported | – | – | –
Cc1cn([C@@H]2O[C@H](CO)[C@@H](O)[C@@H]2F)c(=O)[nH]c1=O [5-METHYL-2'-FLUOROARAURACIL] | no drug-induced liver injury reported | drug-induced liver injury reported | no drug-induced liver injury reported | – | – | –
N=C(N)NCCC[C@H](N)C(=O)O [ARGININE] | drug-induced liver injury reported | drug-induced liver injury reported | drug-induced liver injury reported | – | – | –
O=C(O)c1ccccc1Nc1cccc(C(F)(F)F)c1 [FLUFENAMIC ACID] | no drug-induced liver injury reported | drug-induced liver injury reported | drug-induced liver injury reported | – | – | –
C=CCN1CC[C@]23c4c5ccc(O)c4O[C@H]2C(=O)CC[C@@]3(O)[C@H]1C5 [NALOXONE] | no drug-induced liver injury reported | no drug-induced liver injury reported | drug-induced liver injury reported | – | – | –
CC(=O)O.N=C(N)N/N=C/c1c(Cl)cccc1Cl [GUANABENZ ACETATE] | no drug-induced liver injury reported | no drug-induced liver injury reported | drug-induced liver injury reported | – | – | –
CC1(C)O[C@@H]2C[C@H]3[C@@H]4CCC5=CC(=O)C=C[C@]5(C)[C@@]4(F)[C@@H](O)C[C@]3(C)[C@]2(C(=O)CO)O1 [TRIAMCINOLONE ACETONIDE] | no drug-induced liver injury reported | no drug-induced liver injury reported | drug-induced liver injury reported | – | – | –
CC=CC1=C(C(=O)O)N2C(=O)[C@@H](NC(=O)[C@H](N)c3ccc(O)cc3)[C@H]2SC1 [CEFPROZIL] | no drug-induced liver injury reported | drug-induced liver injury reported | no drug-induced liver injury reported | – | – | –
CS(=O)(=O)O.Cc1ccc(NC(=O)c2ccc(CN3CCN(C)CC3)cc2)cc1Nc1nccc(-c2cccnc2)n1 [IMATINIB MESYLATE] | no drug-induced liver injury reported | drug-induced liver injury reported | drug-induced liver injury reported | – | – | –
C[C@]12C/C(=C/O)C(=O)C[C@@H]1CC[C@@H]1[C@@H]2CC[C@@]2(C)[C@H]1CC[C@]2(C)O [OXYMETHOLONE] | no drug-induced liver injury reported | drug-induced liver injury reported | no drug-induced liver injury reported | – | – | –
CN(N=O)C(=O)N[C@@H](C=O)[C@@H](O)[C@H](O)[C@H](O)CO [STREPTOZOCIN] | drug-induced liver injury reported | no drug-induced liver injury reported | drug-induced liver injury reported | – | – | –
Cn1cnc2c(F)c(Nc3ccc(Br)cc3Cl)c(C(=O)NOCCO)cc21 [SELUMETINIB] | no drug-induced liver injury reported | no drug-induced liver injury reported | drug-induced liver injury reported | – | – | –
Nc1ccc(C(=O)O)c(O)c1 [AMINOSALICYLIC ACID] | no drug-induced liver injury reported | drug-induced liver injury reported | no drug-induced liver injury reported | – | – | –
CC1(C)S[C@@H]2[C@H](NC(=O)[C@H](N)c3ccc(O)cc3)C(=O)N2[C@H]1C(=O)O [AMOXICILLIN] | no drug-induced liver injury reported | drug-induced liver injury reported | no drug-induced liver injury reported | – | – | –
Cc1cn([C@H]2C[C@H](N=[N+]=[N-])[C@@H](CO)O2)c(=O)[nH]c1=O [ZIDOVUDINE] | no drug-induced liver injury reported | drug-induced liver injury reported | drug-induced liver injury reported | – | – | –
OCCSCCCCCCCCCCSCCO [TIADENOL] | no drug-induced liver injury reported | no drug-induced liver injury reported | drug-induced liver injury reported | – | – | –
C[C@]12CC[C@@H]3c4ccc(OC(=O)N(CCCl)CCCl)cc4CC[C@H]3[C@@H]1CC[C@@H]2O [ESTRAMUSTINE] | no drug-induced liver injury reported | drug-induced liver injury reported | no drug-induced liver injury reported | – | – | –
C[N+](C)(C)CCOC(N)=O.[Cl-] [CARBACHOL] | no drug-induced liver injury reported | no drug-induced liver injury reported | drug-induced liver injury reported | – | – | –
